# Assay results published in patent publication US10501752B2, “Herbicide tolerant cotton event pDAB4468.19.10.3” (Dow AgroSciences LLC, priority 2012, dated 2019).
# What was measured:
# Format in all cases: in vivo, Gossypium hirsutum
# [1] = tested on: non-transformed Coker 310 variety of cotton (WT); experiment: Butanoic acids of triclopyr and fluroxypyr greenhouse trials, negative control plants (% injury); settings: 2-3 leaf stage
# Protocol: (§1) Herbicide tolerance was assessed following a single post-emergence application of the two molecules. Seed from cotton event pDAB4468.19.10.3 were heat treated in a water bath at 82.5° C. for 1 minute and then planted in metro mix 360 media and grown in a greenhouse. The temperatures in the greenhouse averaged 27° C. and the photoperiod was set at 16 hours of light and eight hours of dark, with maximum light intensity. Plants were allowed to grow until the 2-3 leaf stage of development and a non-randomized study was conducted with four replications and three treatments for each herbicide. […] In addition, a crop oil concentrate was added to a final concentration of 1.25%. Plants were sprayed in a track sprayer calibrated to deliver 187 L/ha of the formulated technical material. A non-transformed Coker 310 variety of cotton was used as a negative control.
# [2] = tested on: cotton event pDAB4468.19.10.3 (aad-12); experiment: Tolerance to butanoic acids of triclopyr and fluroxypyr in greenhouse trials (% injury); settings: 2-3 leaf stage
# Protocol: as §1
# [3] = tested on: cotton event pDAB4468.19.10.3; experiment: Tolerance to triclopyr and fluroxypyr in greenhouse trials (percent visual injury); settings: cotton event, 3 leaf stage, greenhouse
# Protocol: (§2) The tolerance of cotton event pDAB4468.19.10.3 to post-emergence applications of the pyridyloxyacetic acid herbicides, triclopyr and fluroxypyr, was studied in greenhouse trials. Herbicide tolerance was assessed following a single post-emergence application of triclopyr or fluroxypyr. Seed from cotton event pDAB4468.19.10.3 were heat treated in a water bath at 82.5° C. for 1 minute and then planted in metro mix 360 media and grown in a greenhouse. The temperatures in the greenhouse averaged 27° C. and the photoperiod was set at 16 hours of light and eight hours of dark, with maximum light intensity. Plants were allowed to grow until the 3 leaf stage of development and a non-randomized study was conducted with three replications and three treatments for each herbicide. Plants were sprayed in a track sprayer calibrated to deliver 187 L/ha of the commercial formulations of triclopyr (Garlon 4TM, Dow AgroSciences, Indianapolis, Ind.) and fluroxypyr ([…], Dow AgroSciences, Indianapolis, Ind.). A non-transformed Coker 310 variety of cotton was used as a negative control.
# [4] = tested on: non-transformed Coker 310 variety of cotton; experiment: Triclopyr and fluroxypyr greenhouse trials, negative control plants (percent visual injury); settings: 3 leaf stage
# Protocol: as §2
compound,measurement,setting,value
"O=C(O)CCCOc1nc(Cl)c(Cl)cc1Cl [Triclopyr-b, triclopyr-B]",% Injury,"[1]; 140 g ai/ha, 1 DAA",20.5a %
same,% Injury,"[1]; 140 g ai/ha, 3 DAA",26.7a %
same,% Injury,"[1]; 140 g ai/ha, 6 DAA",25b %
same,% Injury,"[1]; 140 g ai/ha, 6 HAA",12.8b %
same,% Injury,"[1]; 140 g ai/ha, 14 DAA",47.5b %
same,% Injury,"[1]; 280 g ai/ha, 1 DAA",21.5a %
same,% Injury,"[1]; 280 g ai/ha, 3 DAA",27.5a %
same,% Injury,"[1]; 280 g ai/ha, 6 DAA",33.8a %
same,% Injury,"[1]; 280 g ai/ha, 6 HAA",7.3b %
same,% Injury,"[1]; 280 g ai/ha, 14 DAA",57.5ab %
same,% Injury,"[1]; 560 g ai/ha, 1 DAA",18.8a %
same,% Injury,"[1]; 560 g ai/ha, 3 DAA",33.8a %
same,% Injury,"[1]; 560 g ai/ha, 6 DAA",35a %
same,% Injury,"[1]; 560 g ai/ha, 6 HAA",8.3b %
same,% Injury,"[1]; 560 g ai/ha, 14 DAA",51.3ab %
same,% Injury,"[2]; 140 g ai/ha, 1 DAA",0.5b %
same,% Injury,"[2]; 140 g ai/ha, 3 DAA",1a %
same,% Injury,"[2]; 140 g ai/ha, 6 DAA",1.5a %
same,% Injury,"[2]; 140 g ai/ha, 6 HAA",3.8c %
same,% Injury,"[2]; 140 g ai/ha, 14 DAA",0a %
same,% Injury,"[2]; 280 g ai/ha, 1 DAA",2b %
same,% Injury,"[2]; 280 g ai/ha, 3 DAA",2a %
same,% Injury,"[2]; 280 g ai/ha, 6 DAA",2.8a %
same,% Injury,"[2]; 280 g ai/ha, 6 HAA",5.3c %
same,% Injury,"[2]; 280 g ai/ha, 14 DAA",0a %
same,% Injury,"[2]; 560 g ai/ha, 1 DAA",2.8b %
same,% Injury,"[2]; 560 g ai/ha, 3 DAA",3.5a %
same,% Injury,"[2]; 560 g ai/ha, 6 DAA",4.3a %
same,% Injury,"[2]; 560 g ai/ha, 6 HAA",8.5b %
same,% Injury,"[2]; 560 g ai/ha, 14 DAA",0a %
"O=C(O)COc1nc(Cl)c(Cl)cc1Cl [Triclopyr, triclopyr]",% Injury,"[3]; 140 g ae/ha, 3 DAA",13.0 c %
same,% Injury,"[3]; 140 g ae/ha, 11 DAA",3.5 b %
same,% Injury,"[3]; 280 g ae/ha, 3 DAA",16.5 b %
same,% Injury,"[3]; 280 g ae/ha, 11 DAA",3.3 b %
same,% Injury,"[3]; 560 g ae/ha, 3 DAA",19.5 a %
same,% Injury,"[3]; 560 g ae/ha, 11 DAA",3.3 b %
same,% Injury,"[4]; 140 g ae/ha, 3 DAA",33.8 a %
same,% Injury,"[4]; 140 g ae/ha, 11 DAA",36.3 b %
same,% Injury,"[4]; 280 g ae/ha, 3 DAA",33.8 a %
same,% Injury,"[4]; 280 g ae/ha, 11 DAA",40.0 ab %
same,% Injury,"[4]; 560 g ae/ha, 3 DAA",36.3 a %
same,% Injury,"[4]; 560 g ae/ha, 11 DAA",48.8 a %
same,% Injury,"[1]; 140 g ai/ha, 1 DAA",24.3a %
same,% Injury,"[1]; 140 g ai/ha, 3 DAA",30a %
same,% Injury,"[1]; 140 g ai/ha, 6 DAA",33.8a %
same,% Injury,"[1]; 140 g ai/ha, 6 HAA",20.8a %
same,% Injury,"[1]; 140 g ai/ha, 14 DAA",56.3ab %
same,% Injury,"[1]; 280 g ai/ha, 1 DAA",23a %
same,% Injury,"[1]; 280 g ai/ha, 3 DAA",32.5a %
same,% Injury,"[1]; 280 g ai/ha, 6 DAA",33.8a %
same,% Injury,"[1]; 280 g ai/ha, 6 HAA",20.3a %
same,% Injury,"[1]; 280 g ai/ha, 14 DAA",60ab %
same,% Injury,"[1]; 560 g ai/ha, 1 DAA",24.5a %
same,% Injury,"[1]; 560 g ai/ha, 3 DAA",32.5a %
same,% Injury,"[1]; 560 g ai/ha, 6 DAA",35a %
same,% Injury,"[1]; 560 g ai/ha, 6 HAA",21.8a %
same,% Injury,"[1]; 560 g ai/ha, 14 DAA",67.5a %
same,% Injury,"[2]; 140 g ai/ha, 1 DAA",8.8a %
same,% Injury,"[2]; 140 g ai/ha, 3 DAA",2a %
same,% Injury,"[2]; 140 g ai/ha, 6 DAA",2.8a %
same,% Injury,"[2]; 140 g ai/ha, 6 HAA",19.5a %
same,% Injury,"[2]; 140 g ai/ha, 14 DAA",0a %
same,% Injury,"[2]; 280 g ai/ha, 1 DAA",8a %
same,% Injury,"[2]; 280 g ai/ha, 3 DAA",1.8a %
same,% Injury,"[2]; 280 g ai/ha, 6 DAA",0.5a %
same,% Injury,"[2]; 280 g ai/ha, 6 HAA",15.8a %
same,% Injury,"[2]; 280 g ai/ha, 14 DAA",0a %
same,% Injury,"[2]; 560 g ai/ha, 1 DAA",9.5a %
same,% Injury,"[2]; 560 g ai/ha, 3 DAA",3.5a %
same,% Injury,"[2]; 560 g ai/ha, 6 DAA",3.5a %
same,% Injury,"[2]; 560 g ai/ha, 6 HAA",17.3a %
same,% Injury,"[2]; 560 g ai/ha, 14 DAA",0a %
